Assay results: article PMC4133124 (Clinical pharmacokinetics, 2014)
Where two headings read alike, the source gives them in different places.

What was measured:
[1] = Sitagliptin pharmacokinetics published in the literature; assay type: in vivo, human; settings: comparison with ref 9
[2] = Sitagliptin plasma pharmacokinetics in adults after single-unit UCB HCT; assay type: in vivo, human
[3] = cited from earlier work
[4] = 600 mg OD, HCT population; ref Farag, S.S. et al. [9]; cited from earlier work
[5] = test system: engraftment of single unit UCB transplants; settings: single unit UCB HCT, sitagliptin 600 mg OD days −1 to +2; cited from earlier work
[6] = cited from earlier work; remark: listed apart in the source
[7] = bootstrap analysis median [5 – 95th percentiles], 200 data sets
[8] = population estimate (RSE%), 600 mg OD oral, HCT patients
[9] = 83 mg OD, ref Vincent, S.H. et al. [12]
[10] = 100 mg OD, ref Herman, G.A. et al. [14]
[11] = 100 mg OD, ref Kim, B.H. et al. [13]
[12] = 200 mg BID, ref Herman, G.A. et al. [16]
[13] = 600 mg OD, ref Bergman, A.J. et al. [10]
[14] = 600 mg OD, ref Herman, G.A. et al. [11]

With `N[C@@H](CC(=O)N1CCn2c(nnc2C(F)(F)F)C1)Cc1cc(F)c(F)cc1F` [sitagliptin] as the compound, how does the “clearance (dose/AUC0-∞) in non-HCT populations lower than in HCT (Farag et al.)” value [1] read?
Its value is 50%.

And the “VC/F (second line so labelled, row r8)” value [2, 7]?
The value was 207.51 [160.11 – 249.82] L.

What about the ka [2, 7] of the same compound?
The ka was 0.22 [0.20 – 0.25] h^−1.

And the Vd/F ([2]; human, plasma, po, 600 mg)?
The Vd/F was 176 L.

And the “sitagliptin pharmacokinetics in the HCT population lower than published profiles” value ([2]; in vivo)?
The value was ~ 50%.

And the “CL/F, total apparent oral clearance” value [2, 8]?
The value was 84.79 (11.91) L/h.

What about the “Q/F, inter-compartmental distribution clearance” value [2, 8] of the same compound?
Its value is 14.29 (13.25) L/h.

And the “VC/F (second line so labelled, row r8)” value [2, 8]?
The value was 217.62 (13.19) L.

And the “ka, first order rate constant of absorption” value [2, 8]?
The value was 0.22 (7.47) h^−1.

And the “AUC0-∞” value [3, 9]?
Its value is 2460.15 ng·h/mL.

What about the Cmax [3, 9] of the same compound?
Its Cmax is 309.14 ng/mL.

What about the “AUC0-∞” value ([3]; 100 mg OD, ref Bergman, A. et al. [15]) of the same compound?
Its value is 3470.28 ng·h/mL.

What about the “AUC0-∞” value ([3]; 100 mg OD, ref Bergman, A. et al. [17]) of the same compound?
Its value is 3217.74 ng·h/mL.

And the “AUC0-∞” value [3, 10]?
The value was 3523.23 ng·h/mL.

What about the Cmax [3, 10] of the same compound?
The Cmax was 390.61 ng/mL.

What about the “AUC0-∞” value [3, 11] of the same compound?
Its value is 2407.23 ng·h/mL.

What about the Cmax [3, 11] of the same compound?
The Cmax was 383.17 ng/mL.

What about the “AUC0-12 (column AUC0-∞, footnote b)” value [3, 12] of the same compound?
Its value is 5987.45 ^b ng·h/mL.

And the Cmax [3, 12]?
The Cmax was 928.66 ng/mL.

What about the “AUC0-24 (column AUC0-∞, footnote a)” value [3, 13] of the same compound?
The value was 22772.81 ^a ng·h/mL.

And the Cmax [3, 13]?
The Cmax was 3156.65 ng/mL.

And the “AUC0-∞” value [3, 14]?
Its value is 22402.05 ng·h/mL.

What about the Cmax [3, 14] of the same compound?
Its Cmax is 3437.7 ng/mL.

What about the renal elimination ([3]; glomerular filtration and active secretion) of the same compound?
Its renal elimination is 87%.

And the “administered dose metabolized via CYP3A and 2C8” value ([3]; healthy volunteers and patients with type 2 diabetes mellitus)?
The value was 16%.

And the bioavailability ([3]; healthy volunteers)?
The bioavailability was 87%.

And the “AUC0-∞” value [4]?
The value was 11661 ng·h/mL.

And the Cmax [4]?
The Cmax was 1690 ng/mL.

And the “median time to engraftment” value [5]?
The value was 21 days.

And the protein-bound [6]?
The protein-bound was 34–46%.
